Literature values, collected in patent US20070207107A1, “Silicone based emulsions for topical drug delivery” (priority 2006, published 2007).

Experiments:
[1] = result in words
[2] = drug dissolved in 98% hexamethyldisiloxane and 2% silicone gum

Cn1c(=O)c2c(ncn2C)n(C)c1=O [Caffeine]
skin permeability (classification) [1]: relatively high skin permeability

Clc1ccc(COC(Cn2ccnc2)c2ccc(Cl)cc2Cl)cc1 (stereo not shown) [econazole nitrate]
skin penetration from silicone formulation compared with silicone-free emulsion [2]: reduced penetration

C[C@]12CCC(=O)C=C1CC[C@@H]1[C@@H]2[C@@H](O)C[C@@]2(C)[C@H]1CC[C@]2(O)C(=O)CO [hydrocortisone]
skin penetration from silicone formulation compared with silicone-free emulsion [2]: formation of a reservoir of hydrocortisone in the stratum corneum

CC(C)Cc1ccc(C(C)C(=O)O)cc1 (stereo not shown) [ibuprofen]
skin penetration from silicone formulation compared with silicone-free emulsion [2]: increased the penetration
